The experiment has as its system Healthy subjects, ages 13-18. The experiment in a line: Rey-Osterreith Complex Figure Test (ROCFT) / Modified Taylor Complex Figure. It counts as in vivo, human. More on the design: key: raw score: elements correctly recalled, accuracy and placement. The conditions noted are these: for ROCFT Copy Raw Score V1, Mean / ROCFT Delayed Raw Score V1, Mean / ROCFT Difference Raw Score V1, Mean / ROCFT Immediate Raw Score V1, Mean: Visit 1; for ROCFT V3-V1 Copy Raw Score, Mean / ROCFT V3-V1 Delayed Raw Score, Mean / ROCFT V3-V1 Difference Raw Score, Mean / ROCFT V3-V1 Immediate Raw Score, Mean: Visit difference score. An excerpt:
Study participants were screened by telephone prior to study enrollment. Healthy subjects, ages 13-18, with no significant medical conditions and no history of co-morbid psychiatric disorder, current Axis I or II diagnosis, or previous participation in a pharmacotherapeutic trial, were selected. Use of any psychotropic medication or any previous head injury resulting in loss of consciousness for 5 or more minutes were used as exclusion criteria. While no participant met criteria for a neuropsychiatric disorder at enrollment, clinical assessments were still completed throughout the study to evaluate changes in mood state. In addition, self-reports of sleep habits, lifestyle, and exercise routines were also administered at baseline as well as at each study visit to assess changes in health habits during study participation. Following the completion of Visit 1 assessment, participants were given their 28-day supply of citicoline (250 mg or 500 mg) or placebo, which was randomly assigned. They were instructed to take one capsule a day every day for the next 28 days. Visit 2 occurred fourteen days after Visit 1. At Visit 2, the remaining study pills were counted and participant dosage calendars were checked to ensure compliance with the protocol. Additional neuropsychological measures and clinical assessments were administered during this visit. Participants returned for Visit 3 fourteen days later, on the 28th day of their study participation. The pill bottle and the dosage calendar were collected from each participant. Urine and blood were again obtained. Participants also participated in similar clinical and neuropsychological testing and clinical measures that were given during visit 1. The ROCFT is an assessment of visuo-organizational ability, visual attention, and visual memory. The participant is asked to copy a complex 2-dimensional figure with the stimulus or complex figure in front of them (Copy Trial), immediately after the stimulus has been removed (Short Delay Trial), and after 30 minutes without the stimulus present (Long Delay Trial). The figure produced at each trial is then evaluated for the strategy used in reproducing the figure, constructional accuracy, and placement of elements within the figure. The Copy, Short Delay, and Long Delay trials are each scored on the number of elements that have been correctly recalled and the accuracy and placement of each element. The Difference Score between immediate and delayed performance scores is a measure of temporary decay for visuospatial memory. This test was administered on both the first and the third visits. The Modified Taylor Complex Figure (MTCF) is an alternate form of the ROCFT to assess visuo-organizational ability, visual attention, and visual memory. The same procedure was used to administer the MTCF. The MTCF was administered at the second visit instead of the ROCFT to minimize the effect of repeat testing on copy and retention of the figure across visits.

As for `C[N+](C)(C)CCOP(=O)(O)OP(=O)([O-])OC[C@H]1O[C@@H](n2ccc(N)nc2=O)[C@H](O)[C@@H]1O` [citicoline, Cytidine 5′-diphosphocholine], where the note is “250 mg/day group”, the “ROCFT Copy Raw Score V1, Mean” value was 29.72; the “ROCFT Delayed Raw Score V1, Mean” value was determined as 21.63; the “ROCFT Difference Raw Score V1, Mean” value is on record as -0.24; the “ROCFT Immediate Raw Score V1, Mean” value turned out to be 21.39. In addition, for the setting “250 mg/day group”, the “ROCFT V3-V1 Copy Raw Score, Mean” value worked out at 0.28; the “ROCFT V3-V1 Delayed Raw Score, Mean” value is 3.80; the “ROCFT V3-V1 Difference Raw Score, Mean” value was 1.35; the “ROCFT V3-V1 Immediate Raw Score, Mean” value came to 5.15. Where the note is “500 mg/day group”, the “ROCFT Copy Raw Score V1, Mean” value is 29.13; the “ROCFT Delayed Raw Score V1, Mean” value is recorded as 19.00; the “ROCFT Difference Raw Score V1, Mean” value amounted to 0.44; the “ROCFT Immediate Raw Score V1, Mean” value is listed as 19.48. For the same compound, where the note is “500 mg/day group”, the “ROCFT V3-V1 Copy Raw Score, Mean” value came out at 0.27; the “ROCFT V3-V1 Delayed Raw Score, Mean” value is reported as 5.31; the “ROCFT V3-V1 Difference Raw Score, Mean” value is listed as 0.13; the “ROCFT V3-V1 Immediate Raw Score, Mean” value is 5.40.

The values above are taken from patent US20230181614A1, “ADMINISTRATION OF CITICOLINE TO IMPROVE COGNITIVE PERFORMANCE, ATTENTIONAL PERFORMANCE, AND MOTOR FUNCTION” (KYOWA HAKKO BIO CO., LTD., priority 2014, published 2023).
